Laboratory results as given in US7998937B2, “Flavonoid compound having an antiviral activity” (Korea Research Institute of Bioscience and Biotechnology, priority 2005, dated 2011).

Tests used:
[1] = system: porcine transmissible gastroenteritis virus (TGEV); assay: Anti-coronavirus inhibitory activity against TGEV in ST cells; assay type: cell-based; conditions: 48 hours
Procedure: (§1) Antiviral activity of quercetin-7-rhamnoside against porcine transmissible gastroenteritis virus (TGEV) and porcine respiratory coronavirus (PRCV), another kind of coronaviruses, was evaluated. ST cells were cultured on a 96-well microplate until the bottom of each well was completely covered with cells. Remaining culture medium was completely removed and each well was washed twice with a phosphate buffer. TGEV or PRCV solution adjusted to a concentration of TCID50 was added to each well. Each of quercetin-7-rhamnoside, conventional antiviral agents purchased from Sigma-ribavirin, lamivudine, azidovudine, acycloguanine and glycyrrhizhin-dissolved in dimethyl sulfoxide was added to each well to a final concentration of 0.1-100 μg/mL. […] Similarly to the aforesaid evaluation of antiviral inhibitory activity against PEDV, c ells treated with DMSO only and those treated with both DMSO and TGEV or both DMSO and PRCV were used as control groups.

[2] = system: porcine respiratory coronavirus (PRCV); assay: Anti-coronavirus inhibitory activity against PRCV in ST cells; assay type: cell-based; conditions: 48 hours
Procedure: as §1

[3] = system: influenza type A (H1N1/WS/33) virus; assay: Antiviral activity against influenza type A virus in MDCK cells (SRB); assay type: cell-based, influenza virus type A (H1N1; WS/33 strain); conditions: 10 μg/mL, influenza A H1N1/WS/33 in MDCK cells, 48 hours, repeated 3 times
Procedure: In order to evaluate the inhibitory activity of quercetin-7-rhamnoside against influenza virus, the following in vitro test was performed using MDCK cells derived from dog kidney.
Inhibitory activity of quercetin-7-rhamnoside against viral proliferation was measured by the method proposed by Kwon Dur-Han, et al. (Korean Patent Application No. 2004-101863). Inhibitory activity against influenza virus type A (H1N1; WS/33 strain) was measured. MDCK cells were cultured on a 96-well microplate until the bottom of each well was completely covered with cells. Remaining culture medium was completely removed and each well was washed twice with a phosphate buffer. Each of quercetin-7-rhamnoside; conventional antiviral agents purchased from Sigma-ribavirin and amantadine; oseltamivir (trade name: Tamiflu) purchased from Roche; and zanamivir (trade name: Relenza) purchased from Glaxo Wellcome; dissolved in dimethyl sulfoxide was added to each well to a final concentration of 10 μg/mL. […] After adding 100 μL of 70% acetone, each well was kept at −20° C. for 1 hour. After drying in a desiccator, 100 μL of 0.4% (w/v) SRB (sulforhodamine B) solution dissolved in 1% (v/v) acetic acid was added. After 30 minutes' staining, the SRB staining solution not bound to the cells was washed off with 1% (v/v) acetic acid for 4 times. After drying, 100 μL of 10 mM Tris solution (pH 10.5) was added to each well to dissolve the stained substance at the bottom of the well. Light absorbance was measured at 562 nm to evaluate the antiviral activity. As control group, viability of cells treated with DMSO only was compared with those treated with both DMSO and virus. Each test was repeated 3 times.

[4] = system: influenza type B (B/Lee/40) virus; assay: Inhibitory activity against influenza type B virus in MDCK cells (SRB); assay type: cell-based; conditions: 10 μg/mL, influenza B/Lee/40 in MDCK cells, 48 hours, repeated 3 times
rotavirus (strain: OSU) = assay: Inhibitory activity against rotavirus in MA104 cells (SRB); assay type: cell-based; conditions: 10 μg/mL, rotavirus OSU in MA104 cells, 48 hours, repeated 2 times
Procedure: (§2) In order to evaluate the inhibitory activity of quercetin-7-rhamnoside against rota virus, the following in vitro test was performed using MA014 cells derived from pig kidney. Inhibitory activity of quercetin-7-rhamnoside against viral proliferation was measured by the method proposed by Kwon Dur-Han, et al. (Korean Patent Publication No. 2004-101863). Inhibitory activity against rotavirus (strain: OSU) was measured. MA104 cells were cultured on a 96-well microplate until the bottom of each well was completely covered with cells. Remaining culture medium was removed and each well was washed twice with a phosphate buffer. A rota virus solution adjusted to a concentration of TCID 50 was added to each well. […] After 48 hours, the MA104 cells were observed under a microscope. After adding 100 μL of 70% acetone, each well was kept at −20° C. for 1 hour. After drying in a desiccator, 100 μL of 0.4% (w/v) SRB (sulforhodamine B) solution dissolved in 1% (v/v) acetic acid was added. After 30 minutes of staining, the SRB solution not bound to the cells was washed off with 1% (v/v) acetic acid for 4 times. After drying, 100 μL of 10 mM Tris solution (pH 10.5) was added to each well to dissolve the stained substance at the bottom of the well. Light absorbance was measured at 562 nm to evaluate the antiviral activity. As control group, viability of cells treated with DMSO only was compared with those treated with both DMSO and virus. Each test was repeated for 2 times.

[5] = system: rhinovirus (strain: rhinovirus 2); assay: Inhibitory activity against rhinovirus in HeLa cells (SRB); assay type: cell-based; conditions: 10 μg/mL, rhinovirus 2 in HeLa cells, 48 hours, repeated 3 times
Procedure: as §2, with “against rhino” for “against rota”, “using HeLa, one of human cervical cancer cell lines, cells.” for “using MA014 cells derived from pig kidney.”, “2004-101863). […] HeLa” for “2004-101863). Inhibitory activity against rotavirus (strain: OSU) was measured. MA104”, “A rhino” for “A rota”, “the HeLa” for “the MA104”, “for 3” for “for 2”

mice = assay: Toxicity test in mice; assay type: in vivo; conditions: 10 g/kg, dissolved in DMSO and diluted with water, observed for 7 days
Procedure: Toxicity test was performed as follows for the quercetin-7-rhamnoside of the present invention.
Quercetin-7-rhamnoside dissolved in dimethyl sulfoxide (DMSO) and diluted with water was administered to mice (10 per each group) at a dosage of 10 g/kg.

ST cells = assay: Cytotoxicity (CC50) in ST cells; conditions: 0.1-100 μg/mL, 48 hours
Vero cells = assay: Cytotoxicity (CC50) in Vero cells; conditions: 0.1-100 μg/mL, 48 hours
[6] = system: porcine epidemic diarrhea virus (PEDV); assay: Antiviral activity against PEDV in Vero cells (SRB staining); conditions: PEDV in Vero cells, maximum dosage 100 μg/mL, 48 hours

## C[C@@H]1O[C@@H](Oc2cc(O)c3c(=O)c(O)c(-c4ccc(O)c(O)c4)oc3c2)[C@H](O)[C@H](O)[C@H]1O [Quercetin-7-rhamnoside, quercetin-7-rhamnoside]
[1]
  IC50: (63.3 μg/mL)]
[2]
  IC50: (59.8 μg/mL)]
[3]
  Inhibitory activity (%) (Mean ± S.D.): 66.03%
[4]
  Inhibitory activity (%) (Mean ± S.D.): 92.66%
Rotavirus (strain: OSU)
  Inhibitory activity (%) (Mean ± S.D.): 77.37%
[5]
  Inhibitory activity (%) (Mean ± S.D.): 77.89%
mice
  deaths after administration: none of them were found dead
ST cells
  CC50: > 100 µg/mL
Vero cells
  CC50 (concentration required for 50% cytotoxicity): > 100 µg/mL
[6]
  IC50 (concentration required for 50% inhibition of viruses): (0.014 μg/mL)]
